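Grown in 96-well plates, cells were treated for 48 hours with each compound at five concentrations. Insufficient inhibition: endpoint recorded as highest concentration tested. TGI marks complete inhibition of growth.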
Tests used:
Experiment in all cases: NCI anticancer screen, dose series, 48 h
[1] = tested on: HCT-116 colon
[2] = tested on: OVCAR-3 ovarian
[3] = tested on: HOP-92 NSCLC
[4] = tested on: RXF 393 renal
[5] = tested on: UACC-62 melanoma
[6] = tested on: HT29 colon
[7] = tested on: SK-OV-3 ovarian
[8] = tested on: U251 CNS
[9] = tested on: OVCAR-8 ovarian
[10] = tested on: SF-539 CNS

Row | SMILES | TGI [1] [µM] | TGI [2] [µM] | TGI [3] [µM] | TGI [4] [µM] | TGI [5] [µM] | TGI [6] [µM] | TGI [7] [µM] | TGI [8] [µM] | TGI [9] [µM] | TGI [10] [µM]
1 | COc1ccccc1CN=C1Nc2ccncc2S(=O)(=O)N1c1ccccc1 | > 100 | > 100 | > 100 | > 100 | > 100 | > 100 | > 100 | > 100 | > 100 | –
2 | COc1ccc(OC2OC(CO)C(OCc3ccccc3)C(OCc3ccccc3)C2OCc2ccccc2)cc1 (stereo unspecified) | > 100 | > 100 | – | – | > 100 | > 100 | > 100 | > 100 | > 100 | > 100
3 | Cn1c(=O)c(-c2ccccc2)c(O)c2ccccc21 | > 100 | > 100 | > 100 | > 100 | – | > 100 | – | > 100 | > 100 | > 100
4 | CO[C@H]1SC[C@H](OC(C)=O)[C@H](OC(C)=O)[C@H]1OC(C)=O | > 100 | > 100 | – | – | > 100 | > 100 | – | > 100 | > 100 | > 100
5 | Cc1ccc2c(c1)-c1c(C#N)c(N)nc(-c3ccc(Cl)cc3)c1CCS2(=O)=O | > 100 | 44.4 | > 100 | – | > 100 | > 100 | > 100 | > 100 | > 100 | 37.1
6 | CCOc1ccc(Nc2nc(N)nc(N)c2N)cc1 | > 100 | > 100 | > 100 | – | > 100 | 33.3 | > 100 | 66 | > 100 | 46.3
7 | O=C(O)c1cccc2cccc(-c3cccc4cccc(C(=O)O)c34)c12 | > 100 | > 100 | – | > 100 | > 100 | > 100 | > 100 | > 100 | > 100 | > 100
8 | COC(=O)C1C(C(=O)OC)C2(OC(c3ccc(Cl)cc3)=CC2=O)C12OC(c1ccc(Cl)cc1)=CC2=O (stereo unspecified) | 30.4 | 42 | 37.6 | 33.2 | 32.8 | 45.2 | > 100 | > 100 | – | 39.2
9 | COC(=O)C1=C(C(=O)OC)SC(=CC#CC=C2SC(C(=O)OC)=C(C(=O)OC)S2)S1 | 32.3 | 17 | 35.2 | – | 29.1 | > 100 | 31.5 | 33.1 | 20.8 | 4.86
10 | N#C/C(C(=O)Nc1ccc(Cl)cc1)=C(/N)N1CCCC1 | > 100 | > 100 | > 100 | – | > 100 | – | > 100 | > 100 | > 100 | > 100
11 | COC(=O)Cc1ccc2c(cnn2-c2ccccc2)c1OC | > 10 | > 10 | – | > 10 | > 10 | > 10 | > 10 | > 10 | > 10 | > 10
12 | CSc1nc(NC(C)C)c2c(n1)Sc1nc3ccccc3n1N=C2 | 21.5 | 25.1 | 31.2 | – | 23.6 | > 100 | 28.2 | 29.9 | 28.8 | –
13 | C1=C2C3=[N+](CCCCC3)CC2Cc2ccsc21 (stereo unspecified) | > 100 | > 100 | > 100 | > 100 | > 100 | > 100 | > 100 | > 100 | > 100 | –
14 | CC(C)N1CC2CC(CN(C(=O)c3ccccc3)C2)C1 | – | > 100 | > 100 | > 100 | > 100 | > 100 | > 100 | > 100 | > 100 | > 100
15 | C=C1C(OC2O[C@@H]3O[C@@]4(C)CC[C@H]5[C@H](C)CC[C@@H](C2=C)[C@@]35O4)O[C@@H]2O[C@@]3(C)CC[C@H]4[C@H](C)CC[C@@H]1[C@@]24O3 (stereo partly specified) | > 50 | > 50 | > 50 | > 50 | > 50 | > 50 | > 50 | > 50 | – | > 50
16 | C=C(C)OCOCCOC | > 100 | > 100 | – | – | > 100 | > 100 | > 100 | > 100 | > 100 | > 100
17 | COc1cccc2c1C(=O)c1c(O)c3c(c(O)c1C2=O)C[C@H](O)C[C@@H]3OC1CC(N)C(O)C(C)O1 (stereo partly specified) | 7.88 | 7.34 | 17.6 | 25 | 1.82 | 14.1 | 14.8 | – | 3.64 | 11.2
